Values after ≈ are worked out from the molar mass of the structure shown. Like-named read-outs stand apart in the source and are kept apart here. Values belong to the compound of their own block, whether it stands above or below them.
Columns and labels:
[1] = cited from earlier work
[2] = Shake flask solubility in pH 6.8 phosphate buffer; assay type: physicochemical
[3] = after oral administration; cited from earlier work
[4] = Pharmacokinetic study after oral administration; assay type: in vivo, BALB/c mice; settings: female, BALB/c, mouse, plasma, 30 mg/kg
[5] = Powder dissolution, USP apparatus II; assay type: physicochemical; settings: pH 6.8
[6] = first pKa, 24 for cocrystal coformers

Compound: O=C(O)c1ccc(O)cc1O [2,4-dihydroxybenzoic acid]
pKa ([1]; second pKa, ref 24 for 2,4-dihydroxybenzoic acid): 8.5

Compound: O=C(O)CCCC(=O)O [glutaric acid]
solubility of coformer ([1]; highly soluble coformers): 1600 mg/mL

Compound: O=C(O)c1c(O)cccc1O [2,6-dihydroxybenzoic acid]
log P ([1]; coformers): 2.14

Compound: O=C(O)c1ccnc(C(=O)O)c1 [pyridine 2,4-dicarboxylic acid]
pKa [1, 6]: 2.15

solubility at 4 h [2]: 0.687 mg/mL (≈ 5.05 mM)
AUC(0-t) [4]: 36900 ng·h/mL
Cmax [4]: 7010 ± 187 ng/mL
solubility at 1 h [5]: 0.676 mg/mL (≈ 4.97 mM)
Compound: Oc1ncnc2[nH]ncc12 [ALO, 1H-pyrazolo[3,4-d]pyrimidine-4(2H)-one]
aqueous solubility [1]: 0.8 mg/mL (≈ 5.88 mM)
pKa [1, 6]: 10.1
time within which the drug is metabolized [3]: ≤ 2 h
